The source of these data is patent publication EP0204215B1, “2-[(1H-benzimidazol-2-ylsulfinyl)methyl]-benzenamines” (G.D. Searle & Co., priority 1985, dated 1986).

The subject of experiment [1] is Gastric Acid Secretion. In words: Inhibition of gastric acid secretion in gastric fistula beagle dogs (histamine-stimulated). It is filed as in vivo. To be noted: four-hour histamine stimulation; for Gastric-Fistula Beagle % Inhibition: 3 mg/kg dose; for inhibition in vivo at 3 mg/kg: Canis lupus familiaris, 4 h. The text has this: Adult female beagle dogs weighing 6 to 11 kilograms obtained from Laboratory Research Enterprises (Kalamazoo, Mich.) or from Hazelton Research Animals (Cumberland, Va.) were surgically implanted with a simple Thomas-type gastric cannula. After recovery from surgery, the dogs were trained to stand quietly, fully conscious, in Pavlov-type dog restraining slings and were acclimated to intravenous infusion of histamine dihydrochloride. During the course of these studies, no dog was used more than once a week. All dogs were deprived of food, but not water, for 18 hours prior to each assay. Each dog was initially infused with 0.15 M sodium chloride solution at a constant rate of […]. The volume of gastric secretions, collected in plastic bottles affixed to the cannula, were measured to the nearest 0.1 ml at 30 minute intervals. One of the following protocols was followed, depending on the route chosen for administration of test compound.
Intravenous dosing: Following a 30-minute basal secretion period, test compounds were administered intravenously (i.v.). At the end of an additional 30 minute period, the saline infusion was replaced with histamine dihydrochloride in saline administered at a rate 15 mcg per kilogram of body weight per hour. Histamine stimulation was maintained for a maximum of four hours during which time gastric secretions were collected every 30 minutes. The pH and titratable acidity were determined for samples from each collection period.
Intragastric dosing: Following a 30-minute basal secretion period, the collection bottles were removed, dosing plugs were inserted, and test compounds were administered intragastrically (i.g.). At the end of a 30-minute drug absorption period, the stomachs were emptied, the collection bottles were reattached, and collections were resumed at 30-minute intervals. Simultaneously, the saline infusion was replaced with a continuous intravenous infusion of histamine dihydrochloride in saline administered for four hours at a rate 15 mcg per kilogram of body weight per hour.
Intraduodenal dosing: Dogs were also equipped with duodenal cannulas for intraduodenal (i.d.) administration of test compounds. Dosing was otherwise performed as described for intragastric dosing.
Data from each protocol were analyzed for three gastric sample variables: volume of gastric juice, acid concentration, and total acid output. Percent inhibition for each four-hour experimental period was determined for each parameter by comparison with 3 to 4 controls in which only food was given. Estimates of ED₅₀'s were determined from dose response curves.

A further experiment addresses T1, (H⁺+K⁺)-ATPase (Canis lupus familiaris, UniProt P50996).
T1 construct: The microsomes retained at the 15%-30% sucrose interface, after centrifugation at 250,000xg for sixty minutes, were used as the source of (H⁺+K⁺)-ATPase; from tissue; host or cells: gastric glandular mucosa of mongrel dogs (microsomal fraction, sucrose step gradient, lyophilized)
Description: Inhibition of (H⁺+K⁺)-ATPase from canine gastric mucosa (release of inorganic phosphate). It is filed as biochemical. To be noted: microsomes from canine gastric mucosa, pH 6.0, preincubated 30 min at 37°; read-out: (H⁺+K⁺)-ATPase IC₅₀. How it is done: Mongrel dogs weighing 15 to 25 kilograms were fasted for twenty-four hours, with water provided ad libitum. The animals were anesthetized with pentobarbital and the stomachs were removed. Subsequent tissue manipulations and subcellular fractionations were performed at 0 to 4°C. After the stomachs were cut open and rinsed with tap water, the antral and cardiac regions were removed and the remaining tissue was rinsed three times in saline. The glandular mucosa was removed mechanically, chopped finely in a medium containing 10 mM Tris hydrochloride (pH 7.4) and 250 mM sucrose, and homogenized. The homogenate was centrifuged at 20,000xg for twenty minutes and the pellet discarded. The supernatant was then centrifuged at 150,000xg for ninety minutes and the supernatant discarded. The pellet was resuspended in the Tris-HCl/sucrose medium by homogenization. Part (2 ml) of the resultant microsomal suspension was layered onto a step gradient consisting of 9 ml of 15% sucrose above 12 ml of 30% sucrose, each sucrose solution being buffered with 10 mM Tris hydrochloride (pH 7.4) containing 0.01% sodium aside. The microsomes retained at the 15%-30% sucrose interface, after centrifugation at 250,000xg for sixty minutes, were used as the source of (H⁺+K⁺)-ATPase. Microsomal preparations were lyophilized, a process that assured potassium ion permiability, and stored at -10° until used.
(H⁺+K⁺)-ATPase activity for each test compound was determined, in duplicate, by measuring the release of inorganic phosphate, which was assayed according to the method of J. ChandraRajan and L. Klein. Anal. Biochem., 72, 407-412 (1976). The (H⁺+K⁺)-ATPase assay medium consisted of 20 mM Mes-Tris (pH 6.0), 5 mM magnesium chloride, 25 mM sucrose, and 4mM Tris-ATP with or without 20 mM potassium chloride in a total volume of 2 ml. Microsomal suspensions (20 to 60 mcl, containing about 25 mcg protein) were added to the assay medium, without Tris-ATP, and then preincubated with a test compound for thirty minutes at 37°. The assay was initiated by adding Tris-ATP and the mixture was incubated another thirty minutes at 37°. A 200-mcl aliquot of the assay mixture was then added to 1.4 ml of a solution consisting of 0.1 M sodium acetate (pH 4.0) and 10% sodium dodecylsulfate, followed by the addition of 200 mcl each of 1% ammonium molybdate and 1% ascorbic acid. At least fifteen minutes later, the optical absorbance at 870 nm (which was proportional to inorganic phosphate concentration up to 100 nmoles per tube, as determined by a standard curve) was obtained. Enzyme activity was linear with incubation time.
(H⁺+K⁺)-ATPase activity is represented by the difference between the measured activities in the presence of potassium ion (K⁺-stimulated) and in the absence of potassium ion (basal). The concentration of a test compound required to inhibit 50% of the (H⁺+K⁺)-ATPase activity (i.e., the IC₅₀) was determined at least in duplicate using linear regression analysis of results obtained for three different compound concentrations ranging from 0.1 mcM to 0.2 mM.

Experiment [2] deals with Gastric Acid Secretion. Description: Inhibition of gastric acid secretion in meal-stimulated Pavlov pouch dog. To be noted: four-hour period. It is filed as in vivo, beagle dogs. The procedure: Adult female beagle dogs weighing 6 to 10 kilograms were obtained from Laboratory Research Enterprises (Kalamazoo, Mich.) or from Hazelton Research Animals (Cumberland, Va.). Surgical implantation of a Thomas-type gastric cannula into an innervated Pavlov pouch of each dog was performed by the method reported by L. Burrows et al., J. Surgical Res., 4, 147-150 (1964). After recovery from surgery, the dogs were trained to stand quietly, fully conscious, in Pavlov-type dog restraining slings. All dogs were deprived of food, but not water, for 24 hours prior to each assay. Basal acid secretion was measured by collecting from the cannulas for 30 minutes before dosing with a test compound. Solutions of the test compounds in iso-osmotic phosphate buffer (pH 7.4) were given either intravenously or directly into the Pavlov pouch. After 30 minutes the pouch was drained. The dogs were then fed 320 grams of dog food and gastric acid secretions were collected each half hour for four hours. Controls were determined in the same way except that only food (i.e., no test compound) was administered.
Data were analyzed for three different variables: volume of gastric juice, acid concentration, and total acid output. Percent inhibition for the four-hour experimental period was determined for each parameter by comparison with 3 to 4 controls. Estimates of ED₅₀ were determined from dose response curves.

T1 sequence (P50996 whole entry): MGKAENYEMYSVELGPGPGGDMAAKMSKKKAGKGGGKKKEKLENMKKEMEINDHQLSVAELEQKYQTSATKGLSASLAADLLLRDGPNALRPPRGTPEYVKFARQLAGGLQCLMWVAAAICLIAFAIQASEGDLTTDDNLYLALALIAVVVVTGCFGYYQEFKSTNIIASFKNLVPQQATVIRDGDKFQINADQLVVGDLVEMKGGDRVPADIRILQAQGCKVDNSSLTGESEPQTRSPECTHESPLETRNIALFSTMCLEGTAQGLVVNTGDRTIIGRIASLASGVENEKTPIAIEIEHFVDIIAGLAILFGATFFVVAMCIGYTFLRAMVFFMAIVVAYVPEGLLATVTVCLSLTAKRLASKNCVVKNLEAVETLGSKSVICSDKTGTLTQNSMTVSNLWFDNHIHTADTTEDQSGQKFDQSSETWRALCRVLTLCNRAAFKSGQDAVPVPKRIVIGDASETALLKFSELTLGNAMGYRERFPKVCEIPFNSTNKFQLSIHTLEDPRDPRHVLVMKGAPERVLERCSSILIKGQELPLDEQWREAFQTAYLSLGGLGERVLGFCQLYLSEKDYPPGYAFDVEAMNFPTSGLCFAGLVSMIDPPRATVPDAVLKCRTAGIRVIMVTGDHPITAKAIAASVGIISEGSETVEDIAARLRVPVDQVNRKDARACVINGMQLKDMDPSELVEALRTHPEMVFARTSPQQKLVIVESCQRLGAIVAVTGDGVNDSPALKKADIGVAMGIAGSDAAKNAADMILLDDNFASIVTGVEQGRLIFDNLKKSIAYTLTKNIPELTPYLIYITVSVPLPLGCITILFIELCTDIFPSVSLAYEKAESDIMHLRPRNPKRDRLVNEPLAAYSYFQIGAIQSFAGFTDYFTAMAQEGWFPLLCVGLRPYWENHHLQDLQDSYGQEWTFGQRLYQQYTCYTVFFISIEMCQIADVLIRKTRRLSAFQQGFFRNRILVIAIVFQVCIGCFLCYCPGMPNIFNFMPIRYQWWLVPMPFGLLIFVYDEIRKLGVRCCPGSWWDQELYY
T1 sequence (P33704 whole entry partner): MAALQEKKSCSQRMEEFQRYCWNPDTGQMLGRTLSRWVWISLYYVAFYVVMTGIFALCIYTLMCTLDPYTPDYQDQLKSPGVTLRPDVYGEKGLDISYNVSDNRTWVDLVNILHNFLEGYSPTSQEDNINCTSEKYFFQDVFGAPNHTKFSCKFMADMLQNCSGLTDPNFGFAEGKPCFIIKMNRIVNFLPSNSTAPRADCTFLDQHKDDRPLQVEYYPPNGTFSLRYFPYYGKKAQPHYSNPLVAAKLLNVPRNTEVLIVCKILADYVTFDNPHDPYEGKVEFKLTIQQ

Consider “2-[[[(5-(trifluoromethyl)-1H-benzimidazol-2-yl]thio]methyl]benzenamine [Example 20]”, for which the entries for the “Gastric-Fistula Beagle % Inhibition” value in the experiment on Gastric Acid Secretion [1] (i.d.) and with Gastric Acid Secretion [1] (i.v.) were 72 i.d. % and 96 i.v. %, respectively. In addition, at (H⁺+K⁺)-ATPase, the IC50 was determined as 5.4 µM.

Take `COc1ccc2[nH]c([S+]([O-])Cc3ccccc3N)nc2c1` (stereo not drawn) [Example 5, 2-[[(5-methoxy-1H-benzimidazol-2-yl)sulfinyl]methyl]benzenamine]: the “Pavlov-Pouch Dog % Inhibition” value in the experiment on Gastric Acid Secretion [2] (3 mg/kg) is 19 (3 mg/kg) %; with Gastric Acid Secretion [2] (10 mg/kg) it was 54 (10 mg/kg) %.

Take `COc1ccc2[nH]c([S+]([O-])Cc3c(N)cc(C)c(OC)c3C)nc2c1` (stereo not drawn) [Example 31, 2-[[(5-methoxy-1H-benzimidazol-2-yl)sulfinyl]methyl]-4-methoxy-3,5-dimethylbenzenamine]: the “Gastric-Fistula Beagle % Inhibition” value in the experiment on Gastric Acid Secretion [1] (i.d.) is on record as 31 i.d. %. For the same compound, the IC50 on (H⁺+K⁺)-ATPase was 16 µM.

Take “2-[[[(5-(trifluoromethy)1-1H-benzimidazol-2-yl]thio]methyl]-3,6-dimethylbenzenamine [Example 28]”: the IC50 on (H⁺+K⁺)-ATPase was 5.3 µM.

With `COc1ccc2[nH]c(SCc3cc(C)ccc3N)nc2c1` [Example 16, 2-[[(5-methoxy-1H-benzimidazol-2-yl)thio]methyl]-4-methylbenzenamine], the IC50 at (H⁺+K⁺)-ATPase is 0.85 µM.

Turning to `Cc1ccc(N)c(C[S+]([O-])c2nc3ccccc3[nH]2)c1` (stereo not drawn) [Example 11, 2-[(1H-benzimidazol-2-ylsulfinyl)methyl]-4-methylbenzenamine], the “Gastric-Fistula Beagle % Inhibition” value in the experiment with Gastric Acid Secretion [1] (i.v.) is given as 67 i.v. %.

For the compound `Cc1cccc(C[S+]([O-])c2nc3ccccc3[nH]2)c1N` (stereo not drawn) [Example 13, 2-[(1H-benzimidazol-2-ylsulfinyl)methyl]-6-methylbenzenamine], the “Gastric-Fistula Beagle % Inhibition” value in the experiment with Gastric Acid Secretion [1] (i.d.) is recorded as 44 i.d. %. The “Pavlov-Pouch Dog % Inhibition” value with Gastric Acid Secretion [2] (3 mg/kg) is 43 (3 mg/kg) %.

For the compound `Cc1cc(N)c(C[S+]([O-])c2nc3ccccc3[nH]2)c(C)c1C` (stereo not drawn) [Example 30, 2-[(1H-benzimidazol-2-ylsulfinyl)methyl]-3,4,5-trimethylbenzenamine hemihydrate], the IC50 on (H⁺+K⁺)-ATPase stood at 1.5 µM.

Take `COc1ccc2[nH]c(SCc3cccc(C)c3N)nc2c1` [Example 18, 2-[[(5-methoxy-1H-benzimidazol-2-yl)thio]methyl]-6-methylbenzenamine]: the inhibition in vivo at 3 mg/kg with Gastric Acid Secretion [1] (intraduodenal, i.d.) turned out to be 66%; in the experiment on Gastric Acid Secretion [1] (iv) it was 91%; with Gastric Acid Secretion [1] (po, i.g.) it was 43%. For the same compound, at (H⁺+K⁺)-ATPase, the IC50 was found to be 4.2 µM. In addition, the “Pavlov-Pouch Dog % Inhibition” value with Gastric Acid Secretion [2] (3 mg/kg) was 79 (3mg/kg) %.

As to `Nc1ccccc1C[S+]([O-])c1nc2ccccc2[nH]1` (stereo not drawn) [Example 3, 2-[(1H-benzimidazol-2-ylsulfinyl)methyl] benzenamine hemihydrate], the “Gastric-Fistula Beagle % Inhibition” value in the experiment with Gastric Acid Secretion [1] (i.d.) was 53 i.d. %. Further, the entries for the “Pavlov-Pouch Dog % Inhibition” value in the experiment on Gastric Acid Secretion [2] (1 mg/kg) and in the experiment with Gastric Acid Secretion [2] (10 mg/kg) were 20 (1 mg/kg) % and 87 (10 mg/kg) %, respectively.

For the compound `CCOc1ccc2[nH]c(SCc3cc(C)ccc3N)nc2c1` [Example 26, 2-[[(5-ethoxy-1H-benzimidazol-2-yl)thio]-methyl]-4-methylbenzenamine], the IC50 at (H⁺+K⁺)-ATPase worked out at 0.82 µM.

Consider `Cc1ccc(CSc2nc3ccccc3[nH]2)c(N)c1C` [Example 22, 2-[(1H-benzimidazol-2-ylthio)methyl]-5,6-dimethylbenzenamine], for which, in the experiment on Gastric Acid Secretion [1] (intraduodenal, i.d.), the inhibition in vivo at 3 mg/kg is 37%. The IC50 on (H⁺+K⁺)-ATPase was found to be 4.4 µM.
